Ends that are not written are not given here. Peptide text beside a SMILES is read from it.
How the values were obtained:
in vitro = details: human, normal human epidermal keratinocytes
Method: (§1) To make sure the peptides are not cytotoxic to the cells, normal human epidermal keratinocytes were seeded to a 96-well plate. The plate was incubated at 37° C. in the presence of 5% CO2 to allow the cells to grow to >95% confluent. Peptides are diluted into stock solutions at concentrations of 50, 100, 200, and 500 μg/ml. The cell culture media are replaced with fresh media containing peptides at various concentrations then incubated at 37° C. and 5% CO2 for 24 hr. At the end of treatment the cell viability was measured using MTT assay kit purchased from ATCC (Manassas Va.).

[1] = MTT cytotoxicity on normal human skin keratinocytes; details: normal human epidermal keratinocytes
Method: as §1

[2] = test system: wound repair in a murine model; details: cited from earlier work

Row | Compound | CC50 at 24 h [1] | other results
1 | CSCC[C@H](NC(=O)[C@@H](N)CCCCN)C(=O)NCC(=O)O [HB2268, KMG] (H-Lys-Met-Gly-OH) | – | CC50 at 24 h (in vitro): > 500 mg/L
2 | EKMGRN [HB2265, EKMGRN] | > 500 mg/L | –
3 | GRNIRN [HB1062, GRNIRN] | > 500 mg/L | –
4 | MPKEKVFLKIEKMGRNIRN (Peptide HB107) [non-antimicrobial host defense peptide derived from cecropin B] | – | Benefit in wound repair ([2]; murine model, compared with growth factor rhPDGF): indistinguishable from the wound treated with growth factor rhPDGF; Epidermal hyperplasia (histological analysis of treated wounds) ([2]; murine wounds): increased
5 | CSCC[C@H](N)C(=O)NCC(=O)N[C@@H](CCCNC(=N)N)C(=O)N[C@@H](CC(N)=O)C(=O)O [HB2235, MGRN] (H-MGRN-OH) | > 500 mg/L | –
6 | EKMGR [HB2263, EKMGR] | > 500 mg/L | –
7 | CC[C@H](C)[C@H](NC(=O)[C@@H](N)CCCCN)C(=O)N[C@@H](CCC(=O)O)C(=O)N[C@@H](CCCCN)C(=O)O [HB2232, KIEK] (H-KIEK-OH) | > 500 mg/L | –
8 | KMGRN [HB2262, KMGRN] | > 500 mg/L | –
9 | N=C(N)NCCC[C@H](NC(=O)CN)C(=O)N[C@@H](CC(N)=O)C(=O)O [HB2269, GRN] (H-Gly-Arg-Asn-OH) | > 500 mg/L | –
10 | CSCC[C@H](NC(=O)[C@H](CCCCN)NC(=O)[C@@H](N)CCC(=O)O)C(=O)NCC(=O)O [HB2234, EKMG] (H-EKMG-OH) | > 500 mg/L | –

— patent US9487558B2, “Short bio-active peptides for promoting wound healing” (HELIX BIOMEDIX, INC., priority 2013, dated 2016)
